Reference: paper PMC4303209, “A novel phosphatidylinositol 3-kinase (PI3K) inhibitor directs a potent FOXO-dependent, p53-independent cell cycle arrest phenotype characterized by the differential induction of a subset of FOXO-regulated genes” (Breast Cancer Research : BCR, 2014)

System: MCF-7 breast cancer cells
Assay: Microarray gene expression analysis (Agilent whole human genome 4 x 44K; compound vs DMSO, LIMMA log2 fold change)
Assay type: cell-based

Structure (SMILES): Cn1ncc2c(N3CCOCC3)nc(-c3cccc(O)c3)nc21 [ETP-45658]
- PDGFRB log2FC (gene PDGFRB (5159), apoptosis genes): 0.022
- PEG3 log2FC (gene PEG3 (5178), apoptosis genes): 0.028
- PEG10 log2FC (gene PEG10 (23089), apoptosis genes): 0.064
- PF4 log2FC (gene PF4 (5196), apoptosis genes): -0.049
- PHLDA3 log2FC (gene PHLDA3 (23612), apoptosis genes): -0.007
- PIK3CG log2FC (gene PIK3CG (5294), apoptosis genes): -0.029
- PKP1 log2FC (gene PKP1 (5317), apoptosis genes): -0.004
- PLEKHG5 log2FC (gene PLEKHG5 (57449), apoptosis genes): 0.079
- PLSCR3 log2FC (gene PLSCR3 (57048), apoptosis genes): -0.068
- POLB log2FC (gene POLB (5423), apoptosis genes): 0.060
- log2FC (gene POLD4 (Gene 57804), cell cycle genes): -0.353
- POR log2FC (gene POR (5447), apoptosis genes): 0.00332
- POU3F4 log2FC (gene POU3F4 (5456), apoptosis genes): -0.034
- POU4F1 log2FC (gene POU4F1, apoptosis genes): 0.016
- log2FC (gene PPAT (Gene 10606), cell cycle genes): 0.187
- log2FC (gene PPP1CA (Gene 5499), cell cycle genes): -0.227
- log2FC (gene PPP2CA (Gene 5515), cell cycle genes): -0.322
- PPP2R1A log2FC (gene PPP2R1A (5518), apoptosis genes): -0.055
- PRAMEF8 log2FC (gene PRAMEF8 (391002), apoptosis genes): 0.019
- PRAMEF10 log2FC (gene PRAMEF10 (343071), apoptosis genes): 0.00225
- log2FC (gene PRKACB (Gene 5567), cell cycle genes): 0.355
- log2FC PRKAG3 (gene PRKAG3 (Gene 53632), cell cycle genes): -0.00189
- PRKRA log2FC (gene PRKRA (8575), apoptosis genes): 0.029
- PRLR log2FC (gene PRLR (5618), apoptosis genes): -0.012
- PROC log2FC (gene PROC (5624), apoptosis genes): 0.006
- PROP1 log2FC (gene PROP1 (5626), apoptosis genes): -0.275
- PSMA1 log2FC (gene PSMA1 (5682), apoptosis genes): 0.045
- log2FC (gene PSMA2 (Gene 5683), cell cycle genes): 0.460
- log2FC (gene PSMA3 (Gene 5684), cell cycle genes): 0.270
- PSMA5 log2FC (gene PSMA5 (5686), apoptosis genes): -0.038
- log2FC PSMA5 (gene PSMA5 (Gene 5686), cell cycle genes): -0.038
- PSMA7 log2FC (gene PSMA7 (5688), apoptosis genes): 0.359
- log2FC PSMA7 (gene PSMA7 (Gene 5688), cell cycle genes): 0.359
- PSMB3 log2FC (gene PSMB3 (5691), apoptosis genes): -0.030
- log2FC (gene PSMB4 (Gene 5692), cell cycle genes): 0.132
- PSMB7 log2FC (gene PSMB7 (5695), apoptosis genes): -0.00851
- log2FC PSMB7 (gene PSMB7 (Gene 5695), cell cycle genes): -0.00851
- PSMB8 log2FC (gene PSMB8 (5696), apoptosis genes): -0.045
- PSMC4 log2FC (gene PSMC4 (5704), apoptosis genes): -0.021
- log2FC PSMC4 (gene PSMC4 (Gene 5704), cell cycle genes): -0.021
- PSMD2 log2FC (gene PSMD2 (5708), apoptosis genes): 0.090
- PSMD13 log2FC (gene PSMD13 (5719), apoptosis genes): -0.031
- log2FC (gene PSMD14 (Gene 10213), cell cycle genes): 0.447
- log2FC (gene PSME1 (Gene 5720), cell cycle genes): 0.322
- PSME2 log2FC (gene PSME2 (5721), apoptosis genes): 0.039
- log2FC (gene PTTG1 (Gene 9232), cell cycle genes): -0.269
- PYCARD log2FC (gene PYCARD (29108), apoptosis genes): -0.070
- log2FC (gene RAB11FIP3 (Gene 9727), cell cycle genes): -0.225
- log2FC RAD51C (gene RAD51C (Gene 5889), cell cycle genes): -0.019
- log2FC RAE1 (gene RAE1 (Gene 8480), cell cycle genes): 0.005
- RAF1 log2FC (gene RAF1 (5894), apoptosis genes): -0.038
- log2FC (gene RALA (Gene 5898), cell cycle genes): 0.348
- log2FC (gene RALB (Gene 5899), cell cycle genes): 0.324
- RAMP2 log2FC (gene RAMP2 (10266), apoptosis genes): -0.017
- log2FC RANGAP1 (gene RANGAP1 (Gene 5905), cell cycle genes): -0.026
- RAPSN log2FC (gene RAPSN (5913), apoptosis genes): -0.022
- RARB log2FC (gene RARB (5915), apoptosis genes): 0.00564
- RASSF6 log2FC (gene RASSF6 (166824), apoptosis genes): 0.042
- log2FC (gene RBBP8 (Gene 5932), cell cycle genes): 0.568
- log2FC (gene RBL1 (Gene 5933), cell cycle genes): 0.284
- log2FC (gene RBM7 (Gene 10179), cell cycle genes): 0.349
- log2FC (gene RCC1 (Gene 1104), cell cycle genes): -0.365
- log2FC REEP4 (gene REEP4 (Gene 80346), cell cycle genes): -0.031
- RET log2FC (gene RET (5979), apoptosis genes): -0.021
- RHOT2 log2FC (gene RHOT2 (89941), apoptosis genes): -0.087
- log2FC RPA2 (gene RPA2 (Gene 6118), cell cycle genes): 0.00567
- RPS3 log2FC (gene RPS3 (6188), apoptosis genes): 0.020
- RPS6KA2 log2FC (gene RPS6KA2 (6196), apoptosis genes): 0.035
- log2FC (gene RPS6KB1 (Gene 6198), cell cycle genes): 0.426
- RRN3 log2FC (gene RRN3 (653390), apoptosis genes): -0.022
- log2FC (gene RSPO1 (Gene 284654), cell cycle genes): -0.127
- RYR2 log2FC (gene RYR2 (6262), apoptosis genes): -0.020
- S100A9 log2FC (gene S100A9 (6280), apoptosis genes): 0.039
- S100A14 log2FC (gene S100A14 (57402), apoptosis genes): 0.034
- log2FC (gene SART1 (Gene 9092), cell cycle genes): -0.304
- SCIN log2FC (gene SCIN (85477), apoptosis genes): -0.012
- log2FC (gene SEH1L (Gene 81929), cell cycle genes): -0.373
- SEMA5A log2FC (gene SEMA5A (9037), apoptosis genes): -0.032
- log2FC SENP2 (gene SENP2 (Gene 59343), cell cycle genes): -0.00743
- SERINC3 log2FC (gene SERINC3 (10955), apoptosis genes): 0.046
- SERPINE1 log2FC (gene SERPINE1 (5054), apoptosis genes): -0.036
- log2FC (gene SESN1 (Gene 27244), cell cycle genes): 0.237
- SHF log2FC (gene SHF (90525), apoptosis genes): 0.026
- SKIL log2FC (gene SKIL (6498), apoptosis genes): 0.046
- log2FC SKIL (gene SKIL (Gene 6498), cell cycle genes): 0.046
- log2FC (gene SLBP (Gene 7884), cell cycle genes): 0.333
- SLC25A6 log2FC (gene SLC25A6 (293), apoptosis genes): 0.025
- log2FC SLC26A8 (gene SLC26A8 (Gene 116369), cell cycle genes): -0.003
- SLC40A1 log2FC (gene SLC40A1 (30061), apoptosis genes): -0.005
- SMAD1 log2FC (gene SMAD1 (4086), apoptosis genes): -0.074
- SMNDC1 log2FC (gene SMNDC1 (10285), apoptosis genes): -0.102
- SOD1 log2FC (gene SOD1 (6647), apoptosis genes): 0.073
- SOS1 log2FC (gene SOS1 (6654), apoptosis genes): 0.035
- SOX8 log2FC (gene SOX8 (30812), apoptosis genes): -0.391
- log2FC SPO11 (gene SPO11 (Gene 23626), cell cycle genes): 0.008
- SPTAN1 log2FC (gene SPTAN1 (6709), apoptosis genes): 0.094
- log2FC (gene SRC (Gene 6714), cell cycle genes): -0.316
- log2FC (gene STAG1 (Gene 10274), cell cycle genes): 0.343
- STK3 log2FC (gene STK3 (6788), apoptosis genes): 0.083
- SULF1 log2FC (gene SULF1 (23213), apoptosis genes): -0.096
- log2FC (gene SUPT5H (Gene 6829), cell cycle genes): -0.331
- log2FC (gene SUV39H2 (Gene 79723), cell cycle genes): -0.388
- SYCP2 log2FC (gene SYCP2 (10388), apoptosis genes): 0.016
- log2FC SYCP2 (gene SYCP2 (Gene 10388), cell cycle genes): 0.016
- log2FC SYCP3 (gene SYCP3 (Gene 50511), cell cycle genes): 0.00367
- log2FC (gene TAF2 (Gene 6873), cell cycle genes): 0.361
- log2FC TAF6 (gene TAF6 (Gene 6878), cell cycle genes): 0.055
- log2FC (gene TAOK2 (Gene 9344), cell cycle genes): -0.736
- TEK log2FC (gene TEK (7010), apoptosis genes): -0.008
- log2FC (gene TEX14 (Gene 56155), cell cycle genes): 0.240
- log2FC (gene TEX15 (Gene 56154), cell cycle genes): 0.238
- TFAP2D log2FC (gene TFAP2D (83741), apoptosis genes): -0.029
- log2FC (gene TGFA (Gene 7039), cell cycle genes): -0.305
- TGFB2 log2FC (gene TGFB2 (7042), apoptosis genes): -0.011
- log2FC TGFB2 (gene TGFB2 (Gene 7042), cell cycle genes): -0.011
- THEM4 log2FC (gene THEM4 (117145), apoptosis genes): -0.054
- log2FC THOC5 (gene THOC5 (Gene 8563), cell cycle genes): 0.010
- TMBIM4 log2FC (gene TMBIM4 (51643), apoptosis genes): 0.025
- log2FC (gene TMEM67 (Gene 91147), cell cycle genes): 0.184
- TMEM102 log2FC (gene TMEM102 (284114), apoptosis genes): -0.101
- TNFRSF1B log2FC (gene TNFRSF1B (7133), apoptosis genes): -0.022
- TNFRSF8 log2FC (gene TNFRSF8 (943), apoptosis genes): 0.055
- TNFRSF10C log2FC (gene TNFRSF10C (8794), apoptosis genes): 0.00147
- TNFSF8 log2FC (gene TNFSF8 (944), apoptosis genes): -0.043
- TNFSF9 log2FC (gene TNFSF9 (8744), apoptosis genes): 0.017
- TNFSF10 log2FC (gene TNFSF10 (8743), apoptosis genes): -0.021
- TNFSF12 log2FC (gene TNFSF12 (8742), apoptosis genes): 0.112
- TNFSF14 log2FC (gene TNFSF14 (8740), apoptosis genes): 0.017
- TNFSF15 log2FC (gene TNFSF15 (9966), apoptosis genes): 0.027
- TNFSF18 log2FC (gene TNFSF18 (8995), apoptosis genes): 0.00185
- log2FC (gene TP73 (Gene 7161), cell cycle genes): -0.503
- log2FC (gene TPD52L1 (Gene 7164), cell cycle genes): 0.379
- TPX2 log2FC (gene TPX2 (22974), apoptosis genes): 0.049
- TRAF2 log2FC (gene TRAF2 (7186), apoptosis genes): -0.056
- TRAF3IP2 log2FC (gene TRAF3IP2 (10758), apoptosis genes): -0.070
- log2FC TRIP13 (gene TRIP13 (Gene 9319), cell cycle genes): 0.007
- log2FC (gene TUBGCP6 (Gene 85378), cell cycle genes): -0.470
- TXNDC5 log2FC (gene TXNDC5 (81567), apoptosis genes): 0.070
- log2FC TYMS (gene TYMS (Gene 7298), cell cycle genes): -0.0037
- UBD log2FC (gene UBD (10537), apoptosis genes): -0.00756
- UBE2V2 log2FC (gene UBE2V2 (7336), apoptosis genes): -0.109
- UNC13B log2FC (gene UNC13B (10497), apoptosis genes): 0.009
- VDAC2 log2FC (gene VDAC2 (7417), apoptosis genes): 0.033
- VIM log2FC (gene VIM (7431), apoptosis genes): 0.051
- VIP log2FC (gene VIP (7432), apoptosis genes): -0.146
- VNN1 log2FC (gene VNN1 (8876), apoptosis genes): 0.157
- log2FC (gene VRK1 (Gene 7443), cell cycle genes): 0.426
- WNK3 log2FC (gene WNK3 (65267), apoptosis genes): 0.012
- log2FC (gene WTAP (Gene 9589), cell cycle genes): -0.387
- log2FC (gene YY1AP1 (Gene 55249), cell cycle genes): 0.220
- ZBTB16 log2FC (gene ZBTB16 (7704), apoptosis genes): 0.144
- log2FC ZC3H12D (gene ZC3H12D (Gene 85313), cell cycle genes): -0.006
- log2FC (gene ZC3HC1 (Gene 51530), cell cycle genes): 0.230
- ZNF205 log2FC (gene ZNF205 (7755), apoptosis genes): -0.229
- ZNF443 log2FC (gene ZNF443 (10224), apoptosis genes): -0.028
- log2FC (gene ZNF503 (Gene 84858), cell cycle genes): -0.229
- ZNF622 log2FC (gene ZNF622 (90441), apoptosis genes): 0.041
